Data as given in US20250387366A1, “TOPICAL OCULAR DELIVERY OF CROMAKALIM” (QLARIS BIO, INC., priority 2022, published 2025).
≈ marks a conversion by molar mass, not a printed value. Like-named read-outs stand apart in the source and are kept apart here.

What was measured:
KATP channels = settings: in the presence of ATP (Brayden et al. 1991); cited from earlier work
[1] = system: patients with primary open-angle glaucoma; settings: Phase 2; cited from earlier work
[2] = Toxicokinetics of levcromakalim in plasma, BID T.O. bilateral formulation 3d for 28 days in rabbits (Example 12, Table 11); format: in vivo, rabbit; settings: for AUC(0-t) / Cmax / Tmax / half-life: DB, rabbit, plasma, topical or ocular; for tlast: in h (unit assumed)
Procedure: Plasma concentrations of levcromakalim were evaluated in DB rabbits after twice a day (BID) oculus uterque (OU, both eyes) topical ophthalmic (T.O.) administration of formulation 3d for 28 days at dose levels of 0, 0.012, 0.03, and 0.06 mg/eye/dose.
Plasma concentrations of levcromakalim were evaluated in DB rabbits after BID OU T.O. administration of three concentrations of formulation 3d at dose levels of 0, 0.012, 0.03, and 0.06 mg/eye/dose (0, 0.024, 0.06, and 0.12 mg/eye/day respectively or 0.030% [1.0 mM], 0.075% [2.5 mM], or 0.15% [5 mM] respectively) for 28 days. Plasma was collected from 3 animals/dose group at pre-dose, 0.5, 1, 2, 3, 4, 6, and 12 hours post-first dose on Days 1 and 28.

[3] = reported by SmithKline Beecham 1993 (Hamilton et al.); cited from earlier work
[4] = Solubility limit of levcromakalim in water (literature); format: physicochemical; settings: converted from 0.48 mg/ml
Source text: Therefore, the Chiang Lin tested material undoubtedly had insoluble material which would have a deleterious effect on the eye and nullify the results. The Hamilton article also stated that cromakalim is soluble in ethanol, DMSO and PEG, none of which would be acceptable as the topical ocular carrier for human administration.

[5] = female, 0.012 mg, females, 0.012 mg/eye/dose BID OU T.O. formulation 3d, Day 1, rabbit plasma
[6] = female, 0.012 mg, females, 0.012 mg/eye/dose BID OU T.O. formulation 3d, Day 28, rabbit plasma
[7] = female, 0.03 mg, females, 0.03 mg/eye/dose BID OU T.O. formulation 3d, Day 1, rabbit plasma
[8] = female, 0.03 mg, females, 0.03 mg/eye/dose BID OU T.O. formulation 3d, Day 28, rabbit plasma
[9] = female, 0.06 mg, females, 0.06 mg/eye/dose BID OU T.O. formulation 3d, Day 1, rabbit plasma
[10] = female, 0.06 mg, females, 0.06 mg/eye/dose BID OU T.O. formulation 3d, Day 28, rabbit plasma
[11] = females, 0.012 mg/eye/dose BID OU T.O. formulation 3d, Day 1, rabbit plasma
[12] = females, 0.012 mg/eye/dose BID OU T.O. formulation 3d, Day 28, rabbit plasma
[13] = females, 0.03 mg/eye/dose BID OU T.O. formulation 3d, Day 1, rabbit plasma
[14] = females, 0.03 mg/eye/dose BID OU T.O. formulation 3d, Day 28, rabbit plasma
[15] = females, 0.06 mg/eye/dose BID OU T.O. formulation 3d, Day 1, rabbit plasma
[16] = females, 0.06 mg/eye/dose BID OU T.O. formulation 3d, Day 28, rabbit plasma
[17] = male, 0.012 mg, males, 0.012 mg/eye/dose BID OU T.O. formulation 3d, Day 1, rabbit plasma
[18] = male, 0.012 mg, males, 0.012 mg/eye/dose BID OU T.O. formulation 3d, Day 28, rabbit plasma
[19] = male, 0.03 mg, males, 0.03 mg/eye/dose BID OU T.O. formulation 3d, Day 1, rabbit plasma
[20] = male, 0.03 mg, males, 0.03 mg/eye/dose BID OU T.O. formulation 3d, Day 28, rabbit plasma
[21] = male, 0.06 mg, males, 0.06 mg/eye/dose BID OU T.O. formulation 3d, Day 1, rabbit plasma
[22] = male, 0.06 mg, males, 0.06 mg/eye/dose BID OU T.O. formulation 3d, Day 28, rabbit plasma
[23] = males, 0.012 mg/eye/dose BID OU T.O. formulation 3d, Day 1, rabbit plasma
[24] = males, 0.012 mg/eye/dose BID OU T.O. formulation 3d, Day 28, rabbit plasma
[25] = males, 0.03 mg/eye/dose BID OU T.O. formulation 3d, Day 1, rabbit plasma
[26] = males, 0.03 mg/eye/dose BID OU T.O. formulation 3d, Day 28, rabbit plasma
[27] = males, 0.06 mg/eye/dose BID OU T.O. formulation 3d, Day 1, rabbit plasma
[28] = males, 0.06 mg/eye/dose BID OU T.O. formulation 3d, Day 28, rabbit plasma

In the case of `CC1(C)Oc2ccc(C#N)cc2C(N2CCCC2=O)C1O` (centres unmarked) [Cromakalim], the “increase of open-state probability (Popen) of single KATP channels” value (KATP channels) is given as “more than 9 fold”.
In the case of `CC1(C)Oc2ccc(C#N)cc2[C@@H](N2CCCC2=O)[C@@H]1OP(=O)(O)O` [QLS-101], the “hyperemia (eye redness)” value [1] is listed as “no evidence of hyperemia” and the “safety and tolerability profile” value [1] is listed as “favorable safety and tolerability profile”.
With `CC1(C)Oc2ccc(C#N)cc2[C@@H](N2CCCC2=O)[C@@H]1O` [levcromakalim] the AUC(0-t) [2, 5] was 0.57 ng·h/mL, the Cmax [2, 5] was 0.64 ng/mL and the Tmax [2, 5] was 1.67 h. The half-life [2, 5] was 1.84 h, the AUC(0-t) [2, 6] was 0.051 ng·h/mL and the Cmax [2, 6] was 0.56 ng/mL. For the same molecule, the Tmax [2, 6] was 0.33 h, the AUC(0-t) [2, 7] was 3.99 ng·h/mL and the Cmax [2, 7] was 1.75 ng/mL. It also gave a Tmax [2, 7] of 0.67 h, a half-life [2, 7] of 1.7 h and an AUC(0-t) [2, 8] of 3.58 ng·h/mL. It also gave a Cmax [2, 8] of 1.76 ng/mL, a Tmax [2, 8] of 0.67 h and a half-life [2, 8] of 2.19 h. It also gave an AUC(0-t) [2, 9] of 8.89 ng·h/mL, a Cmax [2, 9] of 2.85 ng/mL and a Tmax [2, 9] of 1 h. For the same molecule, the half-life [2, 9] was 1.77 h, the Cmax [2, 10] was 2.06 ng/mL and the Tmax [2, 10] was 1.2 h. The half-life [2, 10] was 1.97 h, the AUCtlast/Dose [2, 11] was 23.74 ng·h/mL/mg and the Cmax/Dose [2, 11] was 26.67 ng/mL/mg. The tlast [2, 11] was 2.00, the AUCtlast/Dose [2, 12] was 21.11 ng·h/mL/mg and the Cmax/Dose [2, 12] was 23.21 ng/mL/mg. For the same molecule, the tlast [2, 12] was 2.25, the AUCtlast/Dose [2, 13] was 66.44 ng·h/mL/mg and the Cmax/Dose [2, 13] was 29.22 ng/mL/mg. The tlast [2, 13] was 3.67, the AUCtlast/Dose [2, 14] was 59.64 ng·h/mL/mg and the Cmax/Dose [2, 14] was 29.41 ng/mL/mg. It also gave a tlast [2, 14] of 3.33, an AUCtlast/Dose [2, 15] of 74.06 ng·h/mL/mg and a Cmax/Dose [2, 15] of 23.73 ng/mL/mg. It also gave a tlast [2, 15] of 4.80, an AUCtlast [2, 16] of 6.05 ng·h/mL and an AUCtlast/Dose [2, 16] of 50.39 ng·h/mL/mg. It also gave a Cmax/Dose [2, 16] of 17.13 ng/mL/mg, a tlast [2, 16] of 4.80 and an AUC(0-t) [2, 17] of 0.94 ng·h/mL. The Cmax [2, 17] was 0.77 ng/mL, the Tmax [2, 17] was 1.17 h and the AUC(0-t) [2, 18] was 0.14 ng·h/mL. It also gave a Cmax [2, 18] of 0.37 ng/mL, a Tmax [2, 18] of 0.33 h and an AUC(0-t) [2, 19] of 3.96 ng·h/mL. It also gave a Cmax [2, 19] of 2.26 ng/mL, a Tmax [2, 19] of 0.67 h and a half-life [2, 19] of 1.28 h. For the same molecule, the AUC(0-t) [2, 20] was 2.53 ng·h/mL, the Cmax [2, 20] was 1.68 ng/mL and the Tmax [2, 20] was 0.5 h. The half-life [2, 20] was 2.88 h, the AUC(0-t) [2, 21] was 5.64 ng·h/mL and the Cmax [2, 21] was 2.61 ng/mL. The Tmax [2, 21] was 0.7 h, the half-life [2, 21] was 1.72 h and the Cmax [2, 22] was 2.58 ng/mL. It also gave a Tmax [2, 22] of 0.6 h, a half-life [2, 22] of 2.29 h and an AUCtlast/Dose [2, 23] of 39.23 ng·h/mL/mg. The Cmax/Dose [2, 23] was 32.12 ng/mL/mg, the tlast [2, 23] was 1.50 and the AUCtlast/Dose [2, 24] was 5.78 ng·h/mL/mg. For the same molecule, the Cmax/Dose [2, 24] was 15.40 ng/mL/mg, the tlast [2, 24] was 0.500 and the AUCtlast/Dose [2, 25] was 66.06 ng·h/mL/mg. For the same molecule, the Cmax/Dose [2, 25] was 28.88 ng/mL/mg, the tlast [2, 25] was 3.00 and the AUCtlast/Dose [2, 26] was 42.11 ng·h/mL/mg. For the same molecule, the Cmax/Dose [2, 26] was 28.05 ng/mL/mg, the tlast [2, 26] was 2.33 and the AUCtlast/Dose [2, 27] was 47.04 ng·h/mL/mg. It also gave a Cmax/Dose [2, 27] of 21.78 ng/mL/mg, a tlast [2, 27] of 3.60 and an AUCtlast [2, 28] of 6.11 ng·h/mL. The AUCtlast/Dose [2, 28] was 50.96 ng·h/mL/mg, the Cmax/Dose [2, 28] was 21.48 ng/mL/mg and the tlast [2, 28] was 4.20. For the same molecule, the “solubility limit in water” value [3] was 480 µg/mL (≈ 1680 µM) and the “solubility limit in water” value [4] was 0.048 % w/w.
